Reference: paper PMC12670313 (ACS Central Science, 2025)

How the values were obtained:
[1] = tested on: base pair RNA (UU internal loops replaced with AU base pairs); test: 1D imino proton NMR with base pair control RNA; format: binding; conditions: 50 µM RNA, 100 µM compound
Protocol: NMR spectra were recorded on a 700 MHz Bruker Avance III spectrometer equipped with a cryogenic probe. RNAs (r(GACC-UGCU-GGU-GAAA-ACC-UGC-UGG-UC) where the underlined Us indicate the internal loop nucleotides and bold indicate a GNRA hairpin) and (r(GACC-AGCU-GGU-GAAA-ACCA-GCU-GGUC) where UU internal loops were replaced with AU base pairs) were purchased from Dharmacon, HPLC purified, deprotected and desalted. The RNA (50 μM) was dissolved in NMR Buffer (5 mM KH2PO4/K2HPO4, 0.25 mM EDTA, pH 6.0) or NMR Buffer supplemented with 50 mM NaCl and reannealed by heating to 95 °C for 3 min, and then slowly cooling the sample to room temperature before adding to Shigemi NMR tubes (Shigemi, Inc.).
1D ^1H NMR spectra of exchangeable (imino) protons were acquired in 5% D2O and 95% H2O at 9 °C using 50 μM of RNA in the absence of compound. Compounds were then dissolved in D6-DMSO and added to the RNA sample to achieve a final concentration of 100 μM (1:2 RNA:compound). The chemical shifts were referenced to the residual solvent peaks of D6-DMSO, which served as the internal calibration standard. NMR spectra were processed in Topspin 4.0.6.

[2] = molecular target: r(CUG)2; test: Fluorescence binding assay with r(CUG) repeat RNA; conditions: A6 100 nM titrated with RNA; read-out: dissociation constant (Kd)
Protocol: Binding assays employed the same RNA used in NMR studies (see “NMR Spectroscopy”). All binding experiments were performed in 1× TR-FRET Assay Buffer lacking Tween-20 on black 384-well nonbinding microplates (Greiner. catalog #781900) with a total volume of 10 μL per well. A 100 nM solution of A6 (the fluorescent probe) was prepared in the same buffer and increasing concentrations of the RNA were then titrated into the A6 solution. After a 20 min incubation at room temperature, fluorescence was measured by a Spectra Max M5 plate reader using an excitation wavelength of 320 nm and an emission wavelength of 480 nm. To confirm specificity, parallel measurements were performed with a fully paired RNA construct as a negative control, where no significant change in fluorescence was observed. The change in fluorescence signal as a function of RNA concentration was fitted to a standard ligand binding for one site saturation 6 Fobs=F0+Fmax−F0/1+(Kd/[RNA])^n where F obs is the observed fluorescence at each RNA concentration, F 0 and F max are the fluorescence intensities of free and fully bound RNA, K d is the dissociation constant, and n is the Hill coefficient.

In the case of `COc1ccc(CCNC(=O)c2cc3c(N4CCCC4)nc(C)cn3n2)cc1OC` [A6], the “binding to base pair RNA (1D imino proton spectra)” value [1] is reported as “does not bind” and the Kd [2] is reported as 17 ± 2 µM.
